This is an account of results in patent publication US9409922B2, “Imidazopyridine macrocycles as inhibitors of human immunodeficiency virus replication” (priority 2014, dated 2016).

pEC50: −log10 of the molar value.

The pEC50 is the negative decadic logarithm of the EC50, by convention in mol/L. Lower therefore signals a large EC50.

The subject of the first assay is NL-RLuc virus. In words: Inhibition of HIV replication: NL-RLuc reporter virus in MT-2 cells, luciferase readout. The format is cell-based. As to conditions: Human immunodeficiency virus 1, MT2, 120 h, MT-2 cells infected with NL-RLuc virus, 5 days of incubation, 10% FBS, at least 2 experiments. An excerpt: Inhibition of HIV Replication:
A recombinant NL-RLuc proviral clone was constructed in which a section of the nef gene from NL4-3 was replaced with the Renilla Luciferase gene. This virus is fully infectious and can undergo multiple cycles of replication in cell culture. In addition, the luciferous reporter provides a simple and easy method for quantitating the extent of virus growth and consequently, the antiviral activity of test compounds. The plasmid pNLRLuc contains the proviral NL-Rluc DNA cloned into pUC 18 at the PvuII site. The NL-RLuc virus was prepared by transfection of 293T cells with the plasmid pNLRLuc. Transfections were performed using the LipofectAMINE PLUS kit from Invitrogen (Carlsbad, Calif.) according to the manufacturer and the virus generated was titered in MT-2 cells. For susceptibility analyses, the titrated virus was used to infect MT-2 cells in the presence of compound, and after 5 days of incubation, cells were processed and quantitated for virus growth by the amount of expressed luciferase. Assay media was RPMI 1640 supplemented with 10% heat inactivated fetal bovine serum (FBS), 100 units/ml penicillin G/100 units/ml streptomycin, 10 mM HEPES buffer pH 7.55 and 2 mM L-glutamine. The results from at least 2 experiments were used to calculate the EC50 values. Luciferase was quantitated using the Dual Luciferase kit from Promega (Madison, Wis.). Susceptibility of viruses to compounds was determined by incubation in the presence of serial dilutions of the compound. The 50% effective concentration (EC50) was calculated by using the exponential form of the median effect equation where (Fa)=1/[1+(ED50/drug conc.)^m](Johnson V A, Byington R T. Infectivity Assay. In Techniques in HIV Research. ed. Aldovini A, Walker B D. 71-76. New York: Stockton Press. 1990).
As for `Cc1c([C@H](OC(C)(C)C)C(=O)O)c2n3cc(nc3c1Br)-c1cccc(c1)-c1cccc(F)c1O[C@@H](C)CCCCOC1(C)CCN2CC1` [Example 36, (2S)-2-[(22S)-5-Bromo-19-fluoro-4,22,28-trimethyl-21,27-dioxa-1,7,34-triazahexacyclo[26.2.2.1^6,^9.1^10,^14.0^2,^7.0^15,^20]tetratriaconta-2,4,6(34),8,10(33),11,13,15(20),16,18-decaen-3-yl]-2-(tert-butoxy)acetic acid], the pEC50 was 8.00.
Turning to `Cc1c([C@H](OC(C)(C)C)C(=O)O)c2n3cc(nc3c1C)-c1cccc(c1)-c1cccc(F)c1O[C@@H](C)CCCCOC1(C)CCN2CC1` [Example 37, (2S)-2-(tert-Butoxy)-2-[(22S)-19-fluoro-4,5,22,28-tetramethyl-21,27-dioxa-1,7,34-triazahexacyclo[26.2.2.1^6,^9.1^10,^14.0^2,^7.0^15,^20]tetratriaconta-2,4,6(34),8,10(33),11,13,15(20),16,18-decaen-3-yl]acetic acid], the pEC50 is 8.00.
The same measure, in the same setting: the figure for `C=Cc1c(C)c([C@H](OC(C)(C)C)C(=O)O)c2n3cc(nc13)-c1cccc(c1)-c1cc(F)ccc1O[C@@H](C)CCCCOC1(C)CCN2CC1` [Example 38, (2S)-2-(tert-Butoxy)-2-[(22S)-5-ethenyl-17-fluoro-4,22,28-trimethyl-21,27-dioxa-1,7,34-triazahexacyclo[26.2.2.1^6,^9.1^10,^14.0^2,^7.0^15,^20]tetratriaconta-2,4,6(34),8,10(33),11,13,15(20),16,18-decaen-3-yl]acetic acid] is 7.03; for `Cc1c([C@H](OC(C)(C)C)C(=O)O)c2n3cc(nc3c1-c1ccncc1)-c1cccc(c1)-c1cc(F)ccc1O[C@@H](C)CCCCOC1(C)CCN2CC1` [Example 39, (2S)-2-(tert-Butoxy)-2-[(22S)-17-fluoro-4,22,28-trimethyl-5-(pyridin-4-yl)-21,27-dioxa-1,7,34-triazahexacyclo[26.2.2.1^6,^9.1^10,^14.0^2,^7.0^15,^20]tetratriaconta-2,4,6(34),8,10(33),11,13,15(20),16,18-decaen-3-yl]acetic acid] it is 7.92.
For the compound `Cc1c([C@H](OC(C)(C)C)C(=O)O)c2n3cc(nc3c1C)-c1cccc(c1)-c1cc(F)c(F)cc1O[C@@H](C)CCCCOC1(C)CCN2CC1` [Example 41, (2S)-2-(tert-Butoxy)-2-[(22S)-17,18-difluoro-4,5,22,28-tetramethyl-21,27-dioxa-1,7,34-triazahexacyclo[26.2.2.1^6,^9.1^10,^14.0^2,^7.0^15,^20]tetratriaconta-2,4,6(34),8,10(33),11,13,15(20),16,18-decaen-3-yl]acetic acid], the negative logarithm of the EC50 (pEC50) was 7.89.
Turning to `Cc1c([C@H](OC(C)(C)C)C(=O)O)c2n3cc(nc3c1C)-c1cccc(c1)-c1cc(OC(F)(F)F)ccc1O[C@@H](C)CCCCOC1(C)CCN2CC1` [Example 42, (2S)-2-(tert-Butoxy)-2-[(22S)-4,5,22,28-tetramethyl-17-(trifluoromethoxy)-21,27-dioxa-1,7,34-triazahexacyclo[26.2.2.1^6,^9.1^10,^14.0^2,^7.0^15,^20]tetratriaconta-2,4,6(34),8,10(33),11,13,15(20),16,18-decaen-3-yl]acetic acid], the pEC50 is 7.22.
Same read-out and setting: the same measure for `Cc1c([C@H](OC(C)(C)C)C(=O)O)c2n3cc(nc3c1C)-c1cccc(c1)-c1cc(F)cc(F)c1O[C@@H](C)CCCCOC1(C)CCN2CC1` [Example 45, (2S)-2-(tert-Butoxy)-2-[(22S)-17,19-difluoro-4,5,22,28-tetramethyl-21,27-dioxa-1,7,34-triazahexacyclo[26.2.2.1^6,^9.1^10,^14.0^2,^7.0^15,^20]tetratriaconta-2,4,6(34),8,10(33),11,13,15(20),16,18-decaen-3-yl]acetic acid]: 7.33; for `Cc1cc2nc3cn2c(c1[C@H](OC(C)(C)C)C(=O)O)N1CCC(C)(CC1)OCCCC[C@H](C)Oc1ccc(F)c(F)c1-c1cccc-3c1` [Example 46, (2S)-2-(tert-butoxy)-2-[(22S)-16,17-difluoro-4,22,28-trimethyl-21,27-dioxa-1,7,34-triazahexacyclo[26.2.2.1^6,^9.1^10,^14.0^2,^7.0^15,^20]tetratriaconta-2,4,6(34),8,10(33),11,13,15(20),16,18-decaen-3-yl]acetic acid]: 8.40; for `Cc1c([C@H](OC(C)(C)C)C(=O)O)c2n3cc(nc3c1C)-c1cccc(c1)-c1c(ccc(F)c1F)O[C@@H](C)CCCCOC1(C)CCN2CC1` [Example 47, (2S)-2-(tert-Butoxy)-2-[(22S)-16,17-difluoro-4,5,22,28-tetramethyl-21,27-dioxa-1,7,34-triazahexacyclo[26.2.2.1^6,^9.1^10,^14.0^2,^7.0^15,^20]tetratriaconta-2,4,6(34),8,10(33),11,13,15(20),16,18-decaen-3-yl]acetic acid]: 8.15.
On the same count and under the same terms, the same measure for `C=C(C)c1c(C)c([C@H](OC(C)(C)C)C(=O)O)c2n3cc(nc13)-c1cccc(c1)-c1cc(F)ccc1O[C@@H](C)CCCCOC1(C)CCN2CC1` [Example 48, (2S)-2-(tert-Butoxy)-2-[(22S)-17-fluoro-4,22,28-trimethyl-5-(prop-1-en-2-yl)-21,27-dioxa-1,7,34-triazahexacyclo[26.2.2.1^6,^9.1^10,^14.0^2,^7.0^15,^20]tetratriaconta-2,4,6(34),8,10(33),11,13,15(20),16,18-decaen-3-yl]acetic acid]: 7.62.

Still in this assay, the particulars now being: MT-2 cells infected with NL-RLuc virus, 5 days of incubation, 10% FBS, at least 2 experiments.
In turn, `Cc1c([C@H](OC(C)(C)C)C(=O)O)c2n3cc(nc3c1C)-c1cccc(c1)-c1c(F)cc(F)cc1O[C@@H](C)CCCCOC1(C)CCN2CC1` [Example 43, (2S)-2-(tert-Butoxy)-2-[(22S)-16,18-difluoro-4,5,22,28-tetramethyl-21,27-dioxa-1,7,34-triazahexacyclo[26.2.2.1^6,^9.1^10,^14.0^2,^7.0^15,^20]tetratriaconta-2,4,6(34),8,10(33),11,13,15(20),16,18-decaen-3-yl]acetic acid] showed a negative-log EC50 (pEC50) of 7.96.
Still for that read-out and setting: the same measure for `Cc1c([C@H](OC(C)(C)C)C(=O)O)c2n3cc(nc3c1C)-c1cccc(c1)-c1c(F)cc(F)cc1O[C@@H](C)CCCCOC1(C)CCN2CC1` [Example 44, (2S)-2-(tert-butoxy)-2-[(22S)-16,18-difluoro-4,5,22,28-tetramethyl-21,27-dioxa-1,7,34-triazahexacyclo[26.2.2.1^6,^9.1^10,^14.0^2,^7.0^15,^20]tetratriaconta-2,4,6(34),8,10(33),11,13,15(20),16,18-decaen-3-yl]acetic acid]: 6.48.
On to `Cc1c([C@H](OC(C)(C)C)C(=O)O)c2n3cc(nc3c1C(C)O)-c1cccc(c1)-c1c(ccc(F)c1F)O[C@@H](C)CCCCOC1(C)CCN2CC1` (stereo partly drawn) [Example 49, (2S)-2-(tert-Butoxy)-2-[(22S)-16,17-difluoro-5-(1-hydroxyethyl)-4,22,28-trimethyl-21,27-dioxa-1,7,34-triazahexacyclo[26.2.2.1^6,^9.1^10,^14.0^2,^7.0^15,^20]tetratriaconta-2,4,6(34),8,10(33),11,13,15(20),16,18-decaen-3-yl]acetic acid], for which the pEC50 was 8.70.
